Measurements reported in US9951056B2, “Substituted nicotinamide inhibitors of BTK and their preparation and use in the treatment of cancer, inflammation and autoimmune disease” (BEIJING INNOCARE PHARMA TECH CO., LTD., priority 2013, dated 2018).

Target: BTK (Homo sapiens (Human), UniProt Q06187)
Test: ADP-Glo kinase biochemical assay, IC50 determination of BTK inhibitors
Conditions: ADP-Glo, ATP 50 uM; values given as bins
Experimental: Biological Properties: IC50 Determination of BTK Inhibitors in ADP-Glo Kinase Biochemical Assay
Those skilled in the art will appreciate that a variety of assay formats may be used to determine the activity of the compounds described herein.
ADP-Glo™ Kinase Assay (Cat. V9102, 10000 Tests), Components: • 1×50 ml ADP-Glo™ Reagent, • 1×100 ml Kinase Detection Buffer, • 1× Kinase Detection Substrate (Lyophilized), • 1×5 ml Ultra Pure ATP, 10 mM • 1×5 ml ADP, 10 mM
• Enzyme concentration: 8 ng/5 ul. • ATP concentration: 50 uM • Substrate (peptide) concentration: 0.2 mg/ml. • Reaction buffer composition: 40 mM Tris-HCl pH7.5, 10 mM MgCl2, 2 mM MnCl2, 0.1 mg/mL BSA, 0.05 mM DTT. • Test compound concentration: DMSO≤0.5%. Methods: Compound Dosage Gradient Solution Preparation: […]
1× and 2× assay buffer were made at first. BTK kinase was diluted with 1× assay buffer but substrate was diluted with 2× assay buffer. 1 ul of diluted compound was transferred into 384-well assay plate, and then 2.0 ul of enzyme solution was added, and spun at 2000 rpm for 1 min. This mixture was incubated at 24° C. for 30 mins. 2 ul of peptide substrate/ATP mixture was added into the assay plate to start the reaction. The mixture was mixed thoroughly and then the 384-well plate was spun and incubated at 24° C. for 60 mins. 5.0 ul of ADP-Glo Reagent was added to stop the kinase activity and deplete the ATP unconsumed, and the plate was mixed thoroughly and incubated at 24° C. for 40 min. Then, 10.0 ul of Kinase Detection reagent was added, and the plate was centrifuged and then kept at 24° C. for 30 min. The luminescence signal was read on Envision.
IC50 values of compounds were calculated from a 4-parameter fit using Equation (2): Y=Bottom+(TOP-Bottom)/(1+((C/X)^hillslope)) Equation (2)
In Equation 2, Y represents % inhibition, X is the log value of the test compound concentration. IC50 was the concentration of compound where half of maximal inhibition was achieved.
All data was analyzed with IDBS XLfit5 software (ID Business Solutions Ltd., UK).

Sequence of BTK (Q06187 whole entry): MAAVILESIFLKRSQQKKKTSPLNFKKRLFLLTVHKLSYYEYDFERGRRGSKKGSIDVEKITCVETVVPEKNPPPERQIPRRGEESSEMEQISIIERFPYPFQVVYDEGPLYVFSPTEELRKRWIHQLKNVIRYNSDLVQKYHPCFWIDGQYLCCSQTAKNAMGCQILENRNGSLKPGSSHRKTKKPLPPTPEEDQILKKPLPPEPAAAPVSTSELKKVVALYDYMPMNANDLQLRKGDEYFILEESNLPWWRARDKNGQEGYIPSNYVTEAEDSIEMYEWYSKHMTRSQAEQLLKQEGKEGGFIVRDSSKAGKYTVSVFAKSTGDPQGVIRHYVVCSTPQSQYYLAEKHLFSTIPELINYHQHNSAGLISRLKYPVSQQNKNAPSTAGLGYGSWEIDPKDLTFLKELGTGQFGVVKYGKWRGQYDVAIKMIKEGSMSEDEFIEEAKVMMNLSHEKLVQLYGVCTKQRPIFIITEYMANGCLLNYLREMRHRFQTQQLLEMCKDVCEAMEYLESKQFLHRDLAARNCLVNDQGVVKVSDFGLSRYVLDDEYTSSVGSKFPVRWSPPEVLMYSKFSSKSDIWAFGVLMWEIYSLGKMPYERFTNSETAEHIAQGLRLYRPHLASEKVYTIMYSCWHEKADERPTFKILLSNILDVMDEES

SMILES | IC50
C=CC(=O)N1CCC(c2cc(C(N)=O)nn2-c2ccc(Oc3ccccc3)cc2)CC1 [Example 56, 5-(1-acryloylpiperidin-4-yl)-1-(4-phenoxyphenyl)-1H-pyrazole-3-carboxamide] | ≥ 1000 nM
C=CC(=O)N1CCN(c2ccc(C(N)=O)c(-c3ccc(Oc4ccccc4F)cc3)n2)CC1 [Example 38, 6-(4-acryloylpiperazin-1-yl)-2-(4-(2-fluorophenoxy)phenyl)nicotinamide] | < 500 nM
C=CC(=O)N1CCN(c2nc(-c3ccc(Oc4ccccc4)cc3)c(C(=O)NC)s2)CC1 [Example 47, 2-(4-acryloylpiperazin-1-yl)-N-methyl-4-(4-phenoxyphenyl)thiazole-5-carboxamide] | < 500 nM
C=CC(=O)N1CCN(c2ccc(C(N)=O)c(-c3ccc(Oc4ccccc4)cc3F)n2)CC1 [Example 39, 6-(4-acryloylpiperazin-1-yl)-2-(2-fluoro-4-phenoxyphenyl)nicotinamide] | < 500 nM
C=CC(=O)N1CCCC(c2nc(C(N)=O)c(-c3ccc(Oc4ccccc4)cc3)s2)C1 (stereo not shown) [Example 45, 2-(1-acryloylpiperidin-3-yl)-5-(4-phenoxyphenyl)thiazole-4-carboxamide] | < 500 nM
C=CC(=O)N1CCC(c2nc(-c3ccc(Oc4ccccc4)cc3)c(C(N)=O)o2)CC1 [Example 46, 2-(1-acryloylpiperidin-4-yl)-4-(4-phenoxyphenyl)oxazole-5-carboxamide] | < 500 nM
CN(C)C/C=C/C(=O)N1CCN(c2ccc(C(N)=O)c(-c3ccc(Oc4ccccc4)cc3)n2)CC1 [Example 25, (E)-6-(4-(4-(dimethylamino)but-2-enoyl)piperazin-1-yl)-2-(4-phenoxyphenyl)nicotinamide] | < 500 nM
C=CC(=O)N1CCC(c2ccc(C#N)c(-c3ccc(Oc4ccccc4)cc3)n2)CC1 [Example 24, 6-(1-acryloylpiperidin-4-yl)-2-(4-phenoxyphenyl)pyridine-3-carbonitrile] | 500 to 1000 nM
C=CC(=O)Nc1cccc(-n2cc(C(N)=O)c(-c3ccc(Oc4ccccc4)cc3)n2)c1 [Example 18, 1-(3-acrylamidophenyl)-3-(4-phenoxyphenyl)-1H-pyrazole-4-carboxamide] | < 500 nM
CN(C)C/C=C/C(=O)N1CCC(n2cc(C(N)=O)c(-c3ccc(Oc4ccccc4)cc3)n2)C1 (stereo not shown) [Example 34, 1-(1-(4-(dimethylamino)but-2-enoyl)pyrrolidin-3-yl)-3-(4-phenoxyphenyl)-1H-pyrazole-4-carboxamide] | < 500 nM
NC(=O)c1cn(C2CNC2)nc1-c1ccc(Oc2ccccc2)cc1 [Example 14, 1-(azetidin-3-yl)-3-(4-phenoxyphenyl)-1H-pyrazole-4-carboxamide] | ≥ 1000 nM
C=CC(=O)N1CCC(c2ccc(C(N)=O)c(-c3ccc(C(=O)Nc4ccccc4)cc3)n2)CC1 [Example 61, 6-(1-acryloylpiperidin-4-yl)-2-(4-(phenylcarbamoyl)phenyl)nicotinamide] | < 500 nM
C=CC(=O)NC1CCN(c2ccc(C(N)=O)c(-c3ccc(Oc4ccccc4)cc3)n2)C1 (stereo not shown) [Example 10, 6-(3-acrylamidopyrrolidin-1-yl)-2-(4-phenoxyphenyl)nicotinamide] | < 500 nM
C=CC(=O)N1CCC(c2ccc(C(N)=O)c(-c3ccc(C(O)c4ccccc4)cc3)n2)CC1 (stereo not shown) [Example 58, 6-(1-acryloylpiperidin-4-yl)-2-(4-(hydroxy(phenyl)methyl)phenyl)nicotinamide] | < 500 nM
C=CC(=O)N1CCN(c2ccc(C(N)=O)c(-c3ccc(Cl)cc3)n2)CC1 [Example 33, 6-(4-acryloylpiperazin-1-yl)-2-(4-chlorophenyl)nicotinamide] | ≥ 1000 nM
C=CC(=O)N1CCC(c2nc(C(N)=O)c(-c3ccc(Oc4ccccc4)cc3)s2)C1 (stereo not shown) [Example 44, 2-(1-acryloylpyrrolidin-3-yl)-5-(4-phenoxyphenyl)thiazole-4-carboxamide] | < 500 nM
C=CC(=O)N1CCN(c2ccc(C(N)=O)c(-c3ccc(Oc4ccccn4)cc3)n2)CC1 [Example 32, 6-(4-acryloylpiperazin-1-yl)-2-(4-(pyridin-2-yloxy)phenyl)nicotinamide] | < 500 nM
N#CCC(=O)N1CC(n2cc(C(N)=O)c(-c3ccc(Oc4ccccc4)cc3)n2)C1 [Example 50, 1-(1-(2-cyanoacetyl)azetidin-3-yl)-3-(4-phenoxyphenyl)-1H-pyrazole-4-carboxamide] | ≥ 1000 nM
NC(=O)c1ccc(C2CCNCC2)nc1-c1ccc(Oc2ccccc2)cc1 [Example 2, 2-(4-phenoxyphenyl)-6-(piperidin-4-yl)nicotinamide] | ≥ 1000 nM

SMILES | IC50
C/C=C(\C#N)C(=O)N1CC(n2cc(C(N)=O)c(-c3ccc(Oc4ccccc4)cc3)n2)C1 [Example 59, (E)-1-(1-(2-cyanobut-2-enoyl)azetidin-3-yl)-3-(4-phenoxyphenyl)-1H-pyrazole-4-carboxamide] | < 500 nM
C=CC(=O)N1CCN(c2ccc(C(N)=O)c(-c3ccc(Oc4cccc(F)c4)cc3)n2)CC1 [Example 35, 6-(4-acryloylpiperazin-1-yl)-2-(4-(3-fluorophenoxy)phenyl)nicotinamide] | < 500 nM
C=CC(=O)Nc1cccc(-c2ccc(C(N)=O)c(-c3ccc(Oc4ccccc4)cc3)n2)c1 [Example 1, 6-(3-acrylamidophenyl)-2-(4-phenoxyphenyl)nicotinamide] | < 500 nM
C=CC(=O)N1CCN(c2ccc(C(N)=O)c(-c3ccc(Oc4ccc(F)cc4)cc3)n2)CC1 [Example 37, 6-(4-acryloylpiperazin-1-yl)-2-(4-(4-fluorophenoxy)phenyl)nicotinamide] | < 500 nM
N#C/C(=C\C1CC1)C(=O)N1CC(n2cc(C(N)=O)c(-c3ccc(Oc4ccccc4)cc3)n2)C1 [Example 53, (E)-1-(1-(2-cyano-3-cyclopropylacryloyl)azetidin-3-yl)-3-(4-phenoxyphenyl)-1H-pyrazole-4-carboxamide] | ≥ 1000 nM
C=CC(=O)N1CCC(c2ccc(C(N)=O)c(-c3ccc(Oc4ccccc4)cc3)n2)C1 (stereo not shown) [Example 23, 6-(1-acryloylpyrrolidin-3-yl)-2-(4-phenoxyphenyl)pyridine-3-carboxamide] | < 500 nM
C=CC(=O)N1CCN(c2ccc(C(=O)O)c(-c3ccc(Oc4ccccc4)cc3)n2)CC1 [Example 26, 6-(4-acryloylpiperazin-1-yl)-2-(4-phenoxyphenyl)pyridine-3-carboxylic acid] | < 500 nM
C=CC(=O)N1CCC(c2nc(-c3ccc(Oc4ccccc4)cc3)c(C(N)=O)s2)CC1 [Example 52, 2-(1-acryloylpiperidin-4-yl)-4-(4-phenoxyphenyl)thiazole-5-carboxamide] | < 500 nM
C=CC(=O)N1CCN(c2ccc(C(N)=O)c(-c3ccc(Oc4ccccc4)c(F)c3)n2)CC1 [Example 36, 6-(4-acryloylpiperazin-1-yl)-2-(3-fluoro-4-phenoxyphenyl)nicotinamide] | < 500 nM
NC(=O)c1cn(-c2cccc(N)c2)nc1-c1ccc(Oc2ccccc2)cc1 [Example 17, 1-(3-aminophenyl)-3-(4-phenoxyphenyl)-1H-pyrazole-4-carboxamide] | < 500 nM
C=CC(=O)Nc1ccc(-n2cc(C(N)=O)c(-c3ccc(Oc4ccccc4)cc3)n2)cc1 [Example 16, 1-(4-acrylamidophenyl)-3-(4-phenoxyphenyl)-1H-pyrazole-4-carboxamide] | < 500 nM
C=CC(=O)N1CCC(c2nc(-c3ccc(Oc4ccccc4)cc3)c(C(N)=O)o2)C1 (stereo not shown) [Example 43, 2-(1-acryloylpyrrolidin-3-yl)-4-(4-phenoxyphenyl)oxazole-5-carboxamide] | < 500 nM
NC(=O)c1ccc(N2CCNCC2)nc1-c1ccc(Oc2ccccc2)cc1 [Example 4, 2-(4-phenoxyphenyl)-6-(piperazin-1-yl)nicotinamide] | ≥ 1000 nM
C=CC(=O)N1CCCC(n2cc(C(N)=O)c(-c3ccc(Oc4ccccc4)cc3)n2)C1 (stereo not shown) [Example 11, 1-(1-acryloylpiperidin-3-yl)-3-(4-phenoxyphenyl)-1H-pyrazole-4-carboxamide] | < 500 nM
C=CC(=O)N1CCCC(c2ccc(C(N)=O)c(-c3ccc(Oc4ccccc4)cc3)n2)C1 (stereo not shown) [Example 8, 6-(1-acryloylpiperidin-3-yl)-2-(4-phenoxyphenyl)nicotnamide] | < 500 nM
C=CC(=O)N1CCC(c2nc(C(N)=O)c(-c3ccc(Oc4ccccc4)cc3)o2)C1 (stereo not shown) [Example 48, 2-(1-acryloylpyrrolidin-3-yl)-5-(4-phenoxyphenyl)oxazole-4-carboxamide] | < 500 nM
C=CC(=O)N1CCC(c2ncc(C(N)=O)c(-c3ccc(Oc4ccccc4)cc3)n2)C1 (stereo not shown) [Example 22, 2-(1-acryloylpyrrolidin-3-yl)-4-(4-phenoxyphenyl)pyrimidine-5-carboxamide] | < 500 nM
C=CC(=O)N1CCC(c2nc(-c3ccc(Oc4ccccc4)cc3)c(C(N)=O)s2)C1 (stereo not shown) [Example 41, 2-(1-acryloylpyrrolidin-3-yl)-4-(4-phenoxyphenyl)thiazole-5-carboxamide] | < 500 nM
